Patent publication US4980474A, “Apovincaminic acid derivatives” (Taisho Pharmaceutical Co., Ltd., priority 1988, dated 1990)

Assays:
[1] = test system: vertebral artery; assay: Effect on increase of blood flow, vertebral artery (anesthetized dogs); assay type: in vivo; details: 50 μg/kg intraarterially
Experimental: (§1) Effect on increase of blood flow was examined using dogs anesthetized with 5% pentbarbital sodium (30 mg/kg). The drugs [2-nitroxyethyl (+)-apovincaminate and 3-nitroxyl-n-propyl apovincaminate of the present invention and ethyl (+)-apovincaminate as control] were administered intraarterially in an amount of each 50 μg/kg, comparisons were made of the blood flows in the femoral artery, vertebral artery and common coronary artery before and after administration of the drugs, and the increase ratios of the blood flows were expressed by percent in Table 1.

[2] = test system: femoral artery; assay: Effect on increase of blood flow, femoral artery (anesthetized dogs); assay type: in vivo; details: 50 μg/kg intraarterially
Experimental: as §1

[3] = test system: common coronary artery; assay: Effect on increase of blood flow, common coronary artery (anesthetized dogs); assay type: in vivo; details: 50 μg/kg intraarterially
Experimental: as §1

[4] = test system: basilar and femoral artery rings, K^+ contraction; assay: Inhibition of basilar and femoral artery contraction induced by K^+; parameters: species or system Mongrel dogs; details: Canis lupus familiaris; 64 mM K^+; Krebs-Ringer, isolated dog artery rings
Experimental: (§2) The test was carried out according to the method of Sonia Jancar et al described in European Journal of Pharmacology, vol. 136, page 345 (1987). Mongrel dogs were killed by anesthetization with pentbarvital (60 mg/kg), the brain was rapidly removed, and the basilar artery was dissected. The femoral artery was picked up at the same time. The isolated blood vessel was cut into rings 5 mm wide, which were soaked in 5 ml of a Krebs-Ringer solution under a resting tension of 1 g. The solution was kept with 95% oxygen and 5% carbon dioxide. To each of the solution in which the blood vessel rings were soaked were added 64 mM of potassium ion (K^+), 10^-5 M of norepinefurin (NE) and 10^-6 M of serotonine (5HT), respectively, and the resulting blood contractions were measured by FD pick up. To the blood vessel rings each was administered the drug [2-nitroxyethyl (+)-apovincaminate of the present invention and ethyl (+)-apovincaminate as control], and the concentrations (IC50) required to produce 50% inhibitions of the contractions by the administration of K^+, NE and 5TH, respectively, were measured.

[5] = test system: basilar and femoral artery rings, 5HT contraction; assay: Inhibition of basilar and femoral artery contraction induced by serotonin (5HT); parameters: species or system Mongrel dogs; details: Canis lupus familiaris; 10^-6 M serotonin; Krebs-Ringer, isolated dog artery rings
Experimental: as §2

[6] = test system: spontaneous spindle bursts (abnormal EEG pattern in aged rats); assay: Improvement of abnormalities of electroencephalogram (EEG) in aged rats; assay type: in vivo, male Wistar rats; details: 10 mg/kg intraperitoneally; for Time up to which the spontaneous spindle burst reappeared: aged rats 23-24 months; for increment of the time up to which the spontaneous spindle wave reappeared versus group treated with vitamin C only: number in parentheses
Experimental: Six male Wistar rats (23-24 months old) were used for each group. The electrodes were implanted on the frontal and occipital cortexes and hippocamus, and the rats were housed for 14 days for applying to the test. The rats operated were each put into an acoustically shielded box with the minimum light amount and tamed for 60 minutes while keeping the behavior free, and then the recording of EEG was started. Thirty minutes after the starting the recording of EEG, the drug (used the same as those in Experiment 2) dissolved in 1 ml of an aqueous vitamin C solution was intraperitoneally administered in the amount of 10 mg per 1 kg of the body weight of the rat. The spontaneous spindle bursts (abnormal EEG pattern in aged rats) were disappeared after the intraperitoneal administration and reappeared after a certain time. [Neurobiology of Aging, vol. 7, page 115 (1986)]. The time up to which the spontaneous spindle burst reappeared was measured. Group which received 10% aqueous vitamin C solution only was tested for comparison. Number in parentheses means the increment of the time (minutes) up to which the spontaneous spindle wave reappeared after the drug administration when compared with that of the group treated with vitamin C only.

[7] = test system: basilar and femoral artery rings, NE contraction; assay: Inhibition of basilar and femoral artery contraction induced by norepinephrine (NE); parameters: species or system Mongrel dogs; details: Canis lupus familiaris; 10^-5 M norepinephrine; Krebs-Ringer, isolated dog artery rings
Experimental: as §2

IC50 [4]	IC50 [5]	IC50 [7]	SMILES	Increase of blood flow, Bertebral artery [1]	Increase of blood flow, Femoral artery [2]	Increase of blood flow, Common coronary artery [3]	Time up to which the spontaneous spindle burst reappeared [6]	increment of the time up to which the spontaneous spindle wave reappeared versus group treated with vitamin C only ([6]; aged rats)	activity relative to drug B (control) in terms of the increment of the time up to which the spontaneous spindle burst reappeared ([6]; aged rats)
–	–	–	CC[C@@]12C=C(C(=O)OCCCO[N+](=O)[O-])n3c4c(c5ccccc53)CCN(CCC1)[C@H]42 [3-Nitroxy-n-propyl (+)-apovincaminate]	45.7%	28.2%	44.3%	–	–	–
2.5 µM	100 µM	63.1 µM	CCOC(=O)C1=C[C@]2(CC)CCCN3CCc4c(n1c1ccccc41)[C@@H]32 [Drug B, Ethyl (+)-apovincaminate, reference compound]	21.8%	14.8%	15.5%	21 min	11 min	–
1.17 µM	6.02 µM	22.3 µM	CC[C@@]12C=C(C(=O)OCCO[N+](=O)[O-])n3c4c(c5ccccc53)CCN(CCC1)[C@H]42 [Drug A, 2-nitroxyethyl (+)-apovincaminate]	72.3%	86.8%	71.1%	41 min	31 min	about 3 times
